How the values were obtained:
[1] = test system: endotoxins produced by E. coli O113:H10; assay: Endotoxin deactivation by LAE, LAL assay (turbidimetric, pyrochrome); type: biochemical; conditions: E. coli O113:H10 endotoxin 12.5 μg/ml, incubated two hours at 37° C., control without LAE 120
Method: Turbidimetric LAL test was conducted according to the instructions provided by the manufacturer (Pyrotell-T, The associates of Cape Cod, Inc.). The standard curve was built based on 300, 30, 3, 0.3, 0.03 and 0.003 EU/ml. The same endotoxin in concentrations of 12.5 μg/ml was used in the experiment.
LAE was applied in concentrations of 0, 5, 10, 20, 30, 50 μg/ml to assess this compound's ability to deactivate endotoxins. LAL reagent water (LRW) was used to make all the endotoxin dilutions including the standards. MIRENAT-CF is a 10.5% solution of LAE in Propylene glycol, so the dilutions of MIRENAT-CF were initially made in propylene glycol, so that concentration of LAE was kept as the only variable. For the presumptive deactivation procedure, the endotoxin was incubated together with LAE for two hours at 37° C. The turbidimetric assay was conducted two times using the onset time for OD405=0.05. The pyrochrome assay was conducted once using the same template on plates.

[2] = test system: S. typhimurium LPS; assay: Endotoxin deactivation as a function of LAE concentration, LAL assay; type: biochemical, Salmonella typhimurium; conditions: for CONCENTRATION Endotoxin: S. typhimurium LPS 10 μg/ml, 2 hours at 37° C., control without LAE 17000
Method: The 1 mg/ml stock solution of S. typhimurium LPS was prepared using the commercially available LPS obtained from the List Biological Laboratories, Inc. (cat #225). The 20 μg/ml solution of LPS was prepared by serially diluting the stock. All the LPS solutions were kept at refrigeration temperatures according to the instructions provided by the manufacturer.
The solutions of LAE prepared were used in the experiment. For the procedure, 500 μl of 20 μg/ml of endotoxins were mixed with 500 μl of LAE solution (10, 20, 40, 60 and 100 μg/ml) in glass reaction tubes, giving the final concentration of LPS, 10 μg/ml and the concentration range of LAE, 5-50 μg/ml. As a negative control, LPS was mixed with 1 mg/ml aqueous solution of propylene glycol. The mixture was incubated for 2 hours at 37° C. Each sample was serially diluted using the LAL reagent water to be assayed for the endotoxin activity.

[3] = test system: Human epithelial cell lines (KB); assay: LPS-induced release of peptidases from human cell culture, fluorigenic substrate; type: cell-based; conditions: for Peptidase released: LAE 2 μg/ml; for Peptidase released / reduction of the toxicity of LPS (measured by fluorescence release): KB cells
Method: Human epithelial cell lines (KB) were obtained from American Cell type collection and grown in BGJ medium (Gibco, Buffalo, N.Y.) at 37° C. with 5% CO2. The medium was supplemented with 5% heated calf serum. Cells were placed in 24 well dishes with 0.5 ml medium per well. The release of peptidases from the human cell lines in response to LPS was measured by a coumarin based fluorigenic substrate utilized to study eukaryotic enzymes that degrade extracellular matrix proteins (collagen and fibronectin) and inactivated by inhibitors of matrix of metalloprotease (Yang et al. Abstract 105 at the 105th ASM general meeting).
The release of peptidase was measured by sensitive fluorescence test.

[4] = test system: Arthrobacter oxydans ATCC 8010; conditions: Gram + bacteria; cited from earlier work
[5] = test system: Bacillus cereus var mycoide ATCC 11778; conditions: Gram + bacteria; cited from earlier work
[6] = test system: Bacillus subtilis ATCC 6633; conditions: Gram + bacteria; cited from earlier work
[7] = test system: Clostridium perfringens ATCC 77454; conditions: Gram + bacteria; cited from earlier work
[8] = test system: Listeria monocytogenes ATCC 7644; conditions: Gram + bacteria; cited from earlier work
[9] = test system: Staphylococcus aureus ATCC 6538; conditions: Gram + bacteria; cited from earlier work
[10] = test system: Micrococcus luteus ATCC 9631; conditions: Gram + bacteria; cited from earlier work
[11] = test system: Lactobacillus delbrueckii ssp lactis CECT 372; conditions: Gram + bacteria; cited from earlier work
[12] = test system: Leuconostoc mesenteroides CETC 912; conditions: Gram + bacteria; cited from earlier work
[13] = test system: Alcaligenes faecalis ATCC 8750; conditions: Gram − bacteria; cited from earlier work
[14] = test system: Bordetella bronchiseptica ATCC 4617; conditions: Gram − bacteria; cited from earlier work
[15] = test system: Citrobacter freundii ATCC 22636; conditions: Gram − bacteria; cited from earlier work
[16] = test system: Enterobacter aerogenes CECT 689; conditions: Gram − bacteria; cited from earlier work
[17] = test system: Escherichia coli ATCC 8739; conditions: Gram − bacteria; cited from earlier work
[18] = test system: Klebsiella pneumoniae var pneumoniae CECT 178; conditions: Gram − bacteria; cited from earlier work
[19] = test system: Proteus mirabilis CECT 170; conditions: Gram − bacteria; cited from earlier work
[20] = test system: Pseudomonas aeruginosa ATCC 9027; conditions: Gram − bacteria; cited from earlier work
[21] = test system: Salmonella typhimurium ATCC 16028; conditions: Gram − bacteria; cited from earlier work
[22] = test system: Serratia marcenses CECT 274; conditions: Gram − bacteria; cited from earlier work
[23] = test system: Aspergillus niger ATCC 14604; conditions: Fungi; cited from earlier work
[24] = test system: Aureobasidium pullulans ATCC 9348; conditions: Fungi; cited from earlier work
[25] = test system: Gliocadium virens ATCC 4645; conditions: Fungi; cited from earlier work
[26] = test system: Chaetonium globosum ATCC 6205; conditions: Fungi; cited from earlier work
[27] = test system: Penicillium chrysogenum CECT 2802; conditions: Fungi; cited from earlier work
[28] = test system: Penicillium funiculosum CECT 2914; conditions: Fungi; cited from earlier work
[29] = test system: Candida albicans ATCC 10231; conditions: Yeast; cited from earlier work
[30] = test system: Rhodotorula rubra CECT 1158; conditions: Yeast; cited from earlier work
[31] = test system: Saccharomyces cerevisiae ATCC 9763; conditions: Yeast; cited from earlier work
[32] = rats; cited from earlier work
[33] = animals and humans; cited from earlier work

ethyl ester of the lauramide of the arginine monohydrochloride [LAE]
CONCENTRATION Endotoxin ([1]; LAE 10 μg/ml): 80 EU/ml × 10E3 | CONCENTRATION Endotoxin ([1]; LAE 50 μg/ml): 61 EU/ml × 10E3 | CONCENTRATION Endotoxin ([2]; LAE 5 μg/ml (as MIRENAT-CF)): 4000 EU/ml × 10E3 | CONCENTRATION Endotoxin ([2]; LAE 10 μg/ml (as MIRENAT-CF)): 3995 EU/ml × 10E3 | CONCENTRATION Endotoxin ([2]; LAE 20 μg/ml (as MIRENAT-CF)): 3000 EU/ml × 10E3 | CONCENTRATION Endotoxin ([2]; LAE 30 μg/ml (as MIRENAT-CF)): 4000 EU/ml × 10E3 | CONCENTRATION Endotoxin ([2]; LAE 50 μg/ml (as MIRENAT-CF)): 2500 EU/ml × 10E3 | dose response of the deactivation effect ([2]; LAE concentration range 5-50 μg/ml): does not follow a dose response | effect on the activity of S. typhimurium endotoxins ([2]; LAE in concentrations of 5-50 μg/ml): significantly decreased | release of peptidase by LAE per se ([3]; 2 μg LAE/ml without LPS, similar to the blank): less than 300 units | peptidase response to LPS ([3]; LAE 2 μg/ml added to LPS, both doses of LPS tested (10 and 20 μg/ml)): significant reduction of peptidase response | Peptidase released ([3]; LPS 0 μg/ml, blank sample 400): 296 Fluorescence units | Peptidase released ([3]; LPS 10 μg/ml, LPS alone 900): 580 Fluorescence units | Peptidase released ([3]; LPS 20 μg/ml, LPS alone 1200): 655 Fluorescence units | reduction of the toxicity of LPS (measured by fluorescence release) ([3]; LPS 10 μg/ml pre-mixed with 2 μg/ml of LAE): 35.6% | reduction of the toxicity of LPS (measured by fluorescence release) ([3]; LPS 20 μg/ml pre-mixed with 2 μg/ml of LAE): 45.4% | M.I.C. [4]: 64 ppm | M.I.C. [5]: 32 ppm | M.I.C. [6]: 16 ppm | M.I.C. [7]: 16 ppm | M.I.C. [8]: 10 ppm | M.I.C. [9]: 32 ppm | M.I.C. [10]: 128 ppm | M.I.C. [11]: 16 ppm | M.I.C. [12]: 32 ppm | M.I.C. [13]: 64 ppm | M.I.C. [14]: 128 ppm | M.I.C. [15]: 64 ppm | M.I.C. [16]: 32 ppm | M.I.C. [17]: 32 ppm | M.I.C. [18]: 32 ppm | M.I.C. [19]: 64 ppm | M.I.C. [20]: 32 ppm | M.I.C. [21]: 32 ppm | M.I.C. [22]: 2 ppm | M.I.C. [23]: 32 ppm | M.I.C. [24]: 16 ppm | M.I.C. [25]: 32 ppm | M.I.C. [26]: 16 ppm | M.I.C. [27]: 128 ppm | M.I.C. [28]: 16 ppm | M.I.C. [29]: 16 ppm | M.I.C. [30]: 16 ppm | M.I.C. [31]: 32 ppm | absorption and metabolism [32]: fast absorption and metabolisation into naturally-occurring amino acids and the fatty acid lauric acid | toxicity [33]: completely harmless to animals and humans

Reference: patent US20110230558A1 (priority 2008, published 2011)
